Measurements from patent US20050009840A1 (SUGEN, INC., priority 2003, published 2005).

target: T1, HGFR (Homo sapiens, UniProt P08581); experiment: HGFR continuous-coupled spectrophotometric assay; assay type: biochemical; details: Table 3, column 'Ki (μM) or I (%)': cells without % sign; read-out: Ki
T1 construct: purchased Upstate 14-526
T1 sequence (P08581 974-1390 limits assumed): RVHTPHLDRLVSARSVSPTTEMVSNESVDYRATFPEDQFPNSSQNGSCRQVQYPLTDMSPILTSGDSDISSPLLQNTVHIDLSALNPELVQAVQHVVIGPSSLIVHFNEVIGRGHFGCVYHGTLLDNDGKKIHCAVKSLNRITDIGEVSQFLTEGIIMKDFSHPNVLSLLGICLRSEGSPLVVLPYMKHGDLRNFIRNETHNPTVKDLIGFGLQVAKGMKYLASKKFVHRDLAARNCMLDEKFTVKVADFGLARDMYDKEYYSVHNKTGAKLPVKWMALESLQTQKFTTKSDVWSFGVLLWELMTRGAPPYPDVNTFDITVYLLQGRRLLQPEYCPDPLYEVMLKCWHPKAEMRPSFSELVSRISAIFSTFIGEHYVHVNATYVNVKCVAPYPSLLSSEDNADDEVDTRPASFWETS

Row | Structure (SMILES) | Ki [µM]
1 | CC(Oc1cc(-c2ccc(CN3C[C@@H](C)N[C@@H](C)C3)cc2)cnc1N)c1c(Cl)ccc(F)c1Cl (stereo partly shown) [Example I-549, 3-[1-(2,6-Dichloro-3-fluoro-phenyl)-ethoxy]-5-[4-(dimethyl-piperazin-1-ylmethyl)-phenyl]-pyridin-2-ylamine] | 0.095
2 | CC(Oc1cc(-c2ccc(C(=O)N3C[C@@H](C)N[C@@H](C)C3)cc2F)cnc1N)c1c(Cl)ccc(F)c1Cl (stereo partly shown) [Example I-552, (4-{6-Amino-5-[1-(2,6-dichloro-3-fluoro-phenyl)-ethoxy]-pyridin-3-yl}-3-fluoro-phenyl)-(dimethyl-piperazin-1-yl)-methanone] | 0.224
3 | Cc1cc(C(=O)N2C[C@@H](C)N[C@@H](C)C2)ccc1-c1cnc(N)c(OC(C)c2c(Cl)ccc(F)c2Cl)c1 (stereo partly shown) [Example I-553, (4-{6-Amino-5-[1-(2,6-dichloro-3-fluoro-phenyl)-ethoxy]-pyridin-3-yl)-3-methyl-phenyl)-(dimethyl-piperazin-1-yl)-methanone] | 0.259
4 | CC(Oc1cc(-c2ccc(C(=O)N3C[C@@H](C)O[C@@H](C)C3)cc2)cnc1N)c1c(Cl)ccc(F)c1Cl (stereo partly drawn) [Example I-554, (4-{6-Amino-5-[1-(2,6-dichloro-3-fluoro-phenyl)-ethoxy]-pyridin-3-yl}-phenyl)-((2R,6S)-2,6-dimethyl-morpholin-4-yl)-methanone] | 0.141
5 | COc1ccc(OC)c(-c2cnc(N)c(OC(C)c3c(Cl)ccc(F)c3Cl)c2)c1 (stereo not shown) [Example I-556, 3-[1-(2,6-Dichloro-3-fluoro-phenyl)-ethoxy]-5-(2,5-dimethoxy-phenyl)-pyridin-2-ylamine] | 0.575
6 | COc1ccc(-c2cnc(N)c(OC(C)c3c(Cl)ccc(F)c3Cl)c2)c(OC)c1 (stereo not shown) [Example I-557, 3-[1-(2,6-Dichloro-3-fluoro-phenyl)-ethoxy]-5-(2,4-dimethoxy-phenyl)-pyridin-2-ylamine] | 0.217
7 | COc1ccccc1-c1cnc(N)c(OC(C)c2c(Cl)ccc(F)c2Cl)c1 (stereo not shown) [Example I-566, 3-[1-(2,6-Dichloro-3-fluoro-phenyl)-ethoxy]-5-(2-methoxy-phenyl)-pyridin-2-ylamine] | 0.278
8 | Cc1cc(-c2cnc(N)c(OC(C)c3c(Cl)ccc(F)c3Cl)c2)ccc1C(=O)N1C[C@@H](C)N[C@@H](C)C1 (stereo partly shown) [Example I-570] | 0.225
9 | CC(Oc1cc(-c2ccc(CN3C[C@@H](C)O[C@@H](C)C3)cc2)cnc1N)c1c(Cl)ccc(F)c1Cl (stereo partly drawn) [Example I-571, 3-[1-(2,6-Dichloro-3-fluoro-phenyl)-ethoxy]-5-[4-((2R,6S)-2,6-dimethyl-morpholin-4-ylmethyl)-phenyl]-pyridin-2-ylamine] | 0.22
10 | C=Cc1cnc(N)c(OC(C)c2c(Cl)ccc(F)c2Cl)c1 (stereo not shown) [Example I-606, 3-[1-(2,6-Dichloro-3-fluoro-phenyl)-ethoxy]-5-vinyl-pyridin-2-ylamine] | 0.655
11 | CCN1CCN(C(=O)c2ccc(-c3cnc(N)c(OC(C)c4c(F)ccc(F)c4Cl)c3)cc2)CC1 (stereo not shown) [Example I-622, (4-{6-Amino-5-[1-(2-chloro-3,6-difluoro-phenyl)-ethoxy]-pyridin-3-yl}-phenyl)-(4-ethyl-piperazin-1-yl)-methanone] | 0.375
12 | CC(Oc1cc(-c2ccc(OCCN3CCOCC3)nc2)cnc1N)c1c(Cl)ccc(F)c1Cl (stereo not shown) [Example I-636, 5-[1-(2,6-Dichloro-3-fluoro-phenyl)-ethoxy]-6′-(2-morpholin-4-yl-ethoxy)-[3,3′]bipyridinyl-6-ylamine] | 0.109
13 | CC(Oc1cc(-c2ccc(=O)n(CCN3CCCC3)c2)cnc1N)c1c(Cl)ccc(F)c1Cl (stereo not shown) [Example I-637, 6′-Amino-5′-[1-(2,6-dichloro-3-fluoro-phenyl)-ethoxy]-1-(2-pyrrolidin-1-yl-ethyl)-1H-[3,3′]-bipyridinyl-6-one] | 0.692
14 | CC(Oc1cc(-c2ccc(OCCN3CCCC3)nc2)cnc1N)c1c(Cl)ccc(F)c1Cl (stereo not shown) [Example I-638, 5-[1-(2,6-Dichloro-3-fluoro-phenyl)-ethoxy]-6′-(2-pyrrolidin-1-yl-ethoxy)-[3,3′]bipyridinyl-6-ylamine] | 0.094

Other lines, results leading:

Row | Ki [µM] | Structure (SMILES)
15 | 0.091 | CC(Oc1cc(-c2ccc(F)c(C#N)c2)cnc1N)c1c(Cl)ccc(F)c1Cl (stereo not shown) [Example I-544, 5-{6-Amino-5-[1-(2,6-dichloro-3-fluoro-phenyl)-ethoxy]-pyridin-3-yl}-2-fluoro-benzonitrile]
16 | 0.057 | CC(Oc1cc(-c2ccc(C(=O)N3CCCCC3)cc2)cnc1N)c1c(Cl)ccc(F)c1Cl (stereo not shown) [Example I-546, (4-{6-Amino-5-[1-(2,6-dichloro-3-fluoro-phenyl)-ethoxy]-pyridin-3-yl}-phenyl)-pipendin-1-yl-methanone]
17 | 0.067 | CC(Oc1cc(-c2ccc(C(=O)N3CCCC3)cc2)cnc1N)c1c(Cl)ccc(F)c1Cl (stereo not shown) [Example I-547, (4-{6-Amino-5-[1-(2,6-dichloro-3-fluoro-phenyl)-ethoxy]-pyridin-3-yl}-phenyl)-pyrrolidin-1-yl-methanone]
18 | 0.091 | CC(Oc1cc(-c2ccc(C(=O)N3C[C@@H](C)N[C@@H](C)C3)c(F)c2)cnc1N)c1c(Cl)ccc(F)c1Cl (stereo partly shown) [Example I-551, (4-{6-Amino-5-[1-(2,6-dichloro-3-fluoro-phenyl)-ethoxy]-pyridin-3-yl}-2-fluoro-phenyl)-(dimethyl-piperazin-1-yl)-methanone]
19 | 0.0525 | CC(Oc1cc(-c2ccc(C(=O)N3CCOCC3)cc2)cnc1N)c1c(Cl)ccc(F)c1Cl (stereo not shown) [Example I-568, (4-{6-Amino-5-[1-(2,6-dichloro-3-fluoro-phenyl)-ethoxy]-pyridin-3-yl}-phenyl)-morpholin-4-yl-methanone]
20 | 0.0478 | CC(Oc1cc(-c2ccc(C(=O)N3C[C@@H](C)N[C@@H](C)C3)c(Cl)c2)cnc1N)c1c(Cl)ccc(F)c1Cl (stereo partly drawn) [Example I-569, (4-{6-Amino-5-[1-(2,6-dichloro-3-fluoro-phenyl)-ethoxy]-pyridin-3-yl}-2-chloro-phenyl)-((3R,5S)-dimethyl-piperazin-1-yl)-methanone]
21 | 0.0554 | CC(Oc1cc(-c2ccc(CN3CCOCC3)cc2)cnc1N)c1c(Cl)ccc(F)c1Cl (stereo not shown) [Example I-572, 3-[1-(2,6-Dichloro-3-fluoro-phenyl)-ethoxy]-5-(4-morpholin-4-ylmethyl-phenyl)-pyridin-2-ylamine]
22 | 0.0095 | CC(Oc1cc(-c2ccc(C(=O)N3CCCN(C)CC3)cc2)cnc1N)c1c(Cl)ccc(F)c1Cl (stereo not shown) [Example I-603, (4-{6-Amino-5-[1-(2,6-dichloro-3-fluoro-phenyl)-ethoxy]-pyridin-3-yl}-phenyl)-(4-methyl-[1,4]-diazepan-1-yl)-methanone]
23 | 0.031 | CC(Oc1cc(-c2ccc(C(=O)N3CCCNCC3)cc2)cnc1N)c1c(Cl)ccc(F)c1Cl (stereo not shown) [Example I-604, (4-{6-Amino-5-[1-(2,6-dichloro-3-fluoro-phenyl)-ethoxy]-pyridin-3-yl}-phenyl)-[1,4]diazepan-1-yl-methanone]
24 | 0.0475 | CC(Oc1cc(-c2ccc(C(=O)N3CCNCC3)cc2)cnc1N)c1c(Cl)ccc(F)c1Cl (stereo not shown) [Example I-605, (4-{6-Amino-5-[1-(2,6-dichloro-3-fluoro-phenyl)-ethoxy]-pyridin-3-yl}-phenyl)-piperazin-1-yl-methanone]
25 | 0.058 | CC(Oc1cc(-c2ccc(C(=O)N3C[C@@H](O)[C@@H](O)C3)cc2)cnc1N)c1c(Cl)ccc(F)c1Cl (stereo partly drawn) [Example I-607, (4-{6-Amino-5-[1-(2,6-dichloro-3-fluoro-phenyl)-ethoxy]-pyridin-3-yl}-phenyl)-((3R,4S)-3,4-dihydroxy-pyrrolidin-1-yl)-methanone]
26 | 0.045 | CC(Oc1cc(-c2ccc(C(=O)NC3CNC3)cc2)cnc1N)c1c(Cl)ccc(F)c1Cl (stereo not shown) [Example I-609, 4-{6-Amino-5-[1-(2,6-dichloro-3-fluoro-phenyl)-ethoxy]-pyridin-3-yl}-N-azetidin-3-yl-benzamide]
27 | 0.069 | CC(Oc1cc(-c2ccc(S(=O)(=O)N(C)C)cc2)cnc1N)c1c(Cl)ccc(F)c1Cl (stereo not shown) [Example I-610, 4-{6-Amino-5-[1-(2,6-dichloro-3-fluoro-phenyl)-ethoxy]-pyridin-3-yl}-N,N-dimethyl-benzenesulfonamide]
28 | 0.0554 | CC(Oc1cc(-c2ccc(C(=O)N3CC4C(N)C4C3)cc2)cnc1N)c1c(Cl)ccc(F)c1Cl (stereo not shown) [Example I-635, (6-Amino-3-aza-bicyclo[3.1.0]hex-3-yl)-(4-{6-amino-5-[1-(2,6-dichloro-3-fluoro-phenyl)-ethoxy]-pyridin-3-yl}-phenyl)-methanone]

same assay, conditions: cells prefixed Ki; read-out: Met Ki

Row | Ki [µM] | Structure (SMILES)
29 | 0.2 | COC(=O)COc1ccc(-c2cnc(N)c(OC(C)c3c(Cl)ccc(F)c3Cl)c2)cc1 (stereo not shown) [Example I-475, (4-{6-Amino-5-[1-(2,6-dichloro-3-fluoro-phenyl)-ethoxy]-pyridin-3-yl}-phenoxy)-acetic acid methyl ester]
30 | 0.2 | CC(Oc1cc(-c2ccc(OCC(=O)O)cc2)cnc1N)c1c(Cl)ccc(F)c1Cl (stereo not shown) [Example I-476, (4-{6-Amino-5-[1-(2,6-dichloro-3-fluoro-phenyl)-ethoxy]-pyridin-3-yl}-phenoxy)-acetic acid]
31 | 0.027 | CC(Oc1cc(-c2ccc(OCC(=O)N3C[C@@H](C)N[C@@H](C)C3)cc2)cnc1N)c1c(Cl)ccc(F)c1Cl (stereo partly drawn) [Example I-477, 2-(4-{6-Amino-5-[1-(2,6-dichloro-3-fluoro-phenyl)-ethoxy]-pyridin-3-yl}-phenoxy)-1-((3R,5S)-3,5-dimethyl-piperazin-1-yl)-ethanone]
32 | 0.041 | CC(Oc1cc(-c2ccc(OCC(=O)N3CC[C@@H](O)C3)cc2)cnc1N)c1c(Cl)ccc(F)c1Cl (stereo partly drawn) [Example I-478, 2-(4-{6-Amino-5-[1-(2,6-dichloro-3-fluoro-phenyl)-ethoxy]-pyridin-3-yl}-phenoxy)-1-((R)-3-hydroxy-pyrrolidin-1-yl)-ethanone]
33 | 0.16 | CC(Oc1cc(-c2ccc(OCC(=O)N3CCN(C(=O)OC(C)(C)C)CC3)cc2)cnc1N)c1c(Cl)ccc(F)c1Cl (stereo not shown) [Example I-479, 4-[2-(4-{6-Amino-5-[1-(2,6-dichloro-3-fluoro-phenyl)-ethoxy]-pyridin-3-yl}-phenoxy)-acetyl]-piperazine-1-carboxylic acid tert-butyl ester]
34 | 3.3 | CC(Oc1cc(-c2ccc(OCCN3CCCC3)cc2)cnc1N)c1cccc(F)c1Cl (stereo not shown) [Example I-487, 3-[1-(2-Chloro-3-fluoro-phenyl)-ethoxy]-5-[4-(2-pyrrolidin-1-yl-ethoxy)-phenyl]-pyridin-2-ylamine]
